Patent US20120141496A1, “IAP BIR DOMAIN BINDING COMPOUNDS” (AEGERA THERAPEUTICS, INC., priority 2007, published 2012)

Key:
SKOV-3 = assay: Viability assay (MTT based), SKOV-3; assay type: cell-based; settings: Homo sapiens, SK-OV-3, SKOV-3 cells, 72 hours, read-out: SKOV-3 ED50
Protocol: (§1) MDA-MD-231 (breast) and SKOV-3 cancer cells were cultured in RPMI1640 media supplemented with 10% FBS and 100 units/mL of Penicillin and Streptomycin.
(§2) Viability assays were done on a number of cells including MDA-MB-231, SKOV-3, H460, PC3, HCT-116, and SW480 cells. Cells were seeded in 96 well plates at a respective density of 5000 and 2000 cells per well and incubated at 37° C. in presence of 5% CO2 for 24 hours. Selected compounds were diluted into the media at various concentration ranging from 0.01 uM up to 100 uM. Diluted compounds were added onto the MDA-MB-231 cells. For the MDA-MB-231 SKOV3, H460, PC3, HCT-116, and SW480 cells, the compounds were added either alone or in presence of 1-3 ng/ml of TRAIL. After 72 hours cellular viability was evaluated by MTT based assays.

MDA-MB-231 = assay: Viability assay (MTT based), MDA-MB-231; assay type: cell-based; settings: Homo sapiens, MDA-MB-231 cells, 72 hours, read-out: MDA-MB-231 ED50
Protocol: as §1, §2

Row | EC50 (SKOV-3) | EC50 (MDA-MB-231) | Structure (SMILES)
1 | 67 nM |  | CN[C@@H](C)C(=O)N[C@@H](Cc1ccc(C#CC#Cc2ccc(C[C@H](NC(=O)[C@H](C)NC)C(=O)N3CCC[C@H]3CN(CCc3ccccc3)C(=O)C(F)(F)F)cc2)cc1)C(=O)N1CCC[C@H]1CN(CCc1ccccc1)C(=O)C(F)(F)F [Compound 3]
2 | 557 nM |  | CN[C@@H](C)C(=O)N[C@@H](Cc1ccc(C#CCO[C@H](C)[C@H](NC(=O)[C@H](CO)NC)C(=O)N2CCC[C@H]2CN(CCc2ccccc2)C(=O)[C@H](N)Cc2ccc(OC)cc2)cc1)C(=O)N1CCC[C@H]1CN(CCc1ccccc1)C(=O)C(F)(F)F [Compound 6]
3 | 136 nM |  | CN[C@@H](C)C(=O)N[C@H](C(=O)N1CCC[C@H]1CN(CCc1ccccc1)C(=O)[C@H](N)Cc1ccc(OC)cc1)[C@@H](C)OCC#Cc1ccc(C[C@H](NC(=O)[C@H](CO)NC)C(=O)N2CCC[C@H]2CN(CCc2ccccc2)C(=O)C(F)(F)F)cc1 [Compound 7]

Further lines, the compound ahead of its results:

Row | Structure (SMILES) | EC50 (SKOV-3) | EC50 (MDA-MB-231)
4 | CN[C@@H](C)C(=O)N[C@@H](Cc1ccc(C#CCO[C@H](C)[C@H](NC(=O)[C@H](C)NC)C(=O)N2CCC[C@H]2CN(CCc2ccccc2)C(=O)C(F)(F)F)cc1)C(=O)N1CCC[C@H]1CN(CCc1ccccc1)C(=O)C(F)(F)F [Compound 1] | 131 nM | 17 nM
5 | CN[C@@H](C)C(=O)N[C@@H](Cc1ccc(-c2ccc(C[C@H](NC(=O)[C@H](C)NC)C(=O)N3CCC[C@H]3CN(CCc3ccccc3)C(=O)C(F)(F)F)cc2)cc1)C(=O)N1CCC[C@H]1CN(CCc1ccccc1)C(=O)C(F)(F)F [Compound 2] |  | 150 nM
6 | CN[C@@H](C)C(=O)N[C@@H](Cc1ccc(C#Cc2ccc(C[C@H](NC(=O)[C@H](C)NC)C(=O)N3CCC[C@H]3CN(CCc3ccccc3)C(=O)C(F)(F)F)cc2)cc1)C(=O)N1CCC[C@H]1CN(CCc1ccccc1)C(=O)C(F)(F)F [Compound 4] | 37 nM | 159 nM
7 | CN[C@@H](C)C(=O)N[C@@H](Cc1ccc(C#CCO[C@H](C)[C@H](NC(=O)[C@H](C)NC)C(=O)N2CCC[C@H]2CN(CCc2ccccc2)C(=O)[C@H](N)Cc2ccc(OC)cc2)cc1)C(=O)N1CCC[C@H]1CN(CCc1ccccc1)C(=O)C(F)(F)F [Compound 5] | 57 nM | 
8 | CN[C@@H](CO)C(=O)N[C@@H](Cc1ccc(C#CCO[C@H](C)[C@H](NC(=O)[C@H](CO)NC)C(=O)N2CCC[C@H]2CN(CCc2ccccc2)C(=O)[C@H](N)Cc2ccc(OC)cc2)cc1)C(=O)N1CCC[C@H]1CN(CCc1ccccc1)C(=O)C(F)(F)F [Compound 8] | 1920 nM | 
